# Results published in ChEMBL document CHEMBL1201862, “PubChem BioAssay data set” (2004).
#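 The compound was tested at five concentrations on cells cultured in 96-well plates, with a 48-hour exposure period. The concentration for 50% growth inhibition is given as GI50.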 Activity calls are given as the source filed them. No stated cut-off is given here; in the data, active = GI50 up to about 1.1 µM and inactive = higher.
# Experiments:
# Assay in all cases: NCI tumour cell line growth inhibition, 48 h
# [1] = test system: LOX IMVI
# [2] = test system: SF-268
# [3] = test system: UACC-62
# [4] = test system: UACC-257
# [5] = test system: KM12
# [6] = test system: NCI-H522
# [7] = test system: A498
# [8] = test system: CCRF-CEM
# [9] = test system: HOP-62
# [10] = test system: RPMI-8226
# [11] = test system: HT-29
# [12] = test system: SK-MEL-28
# [13] = test system: Hs-578T
# [14] = test system: SNB-75
# [15] = test system: MDA-MB-435
# [16] = test system: PC-3
# [17] = test system: EKVX
# [18] = test system: ACHN
# [19] = test system: CAKI-1
# [20] = test system: HCC 2998
# [21] = test system: NCI-H23
# [22] = test system: OVCAR-3
# [23] = test system: SF-295
# [24] = test system: NCI/ADR-RES
# [25] = test system: OVCAR-5
# [26] = test system: T47D
# [27] = test system: MCF7
# [28] = test system: MDA-N
# [29] = test system: DU-145
# [30] = test system: NCI-H226
# [31] = test system: SK-OV-3
# [32] = test system: A549
# [33] = test system: SN12C
# [34] = test system: SK-MEL-5
# [35] = test system: NCI-H460
# [36] = test system: MOLT-4
# [37] = test system: MDA-MB-231
# [38] = test system: SK-MEL-2
# [39] = test system: TK-10
# [40] = test system: HCT-15
# [41] = test system: OVCAR-8
# [42] = test system: U-251
# [43] = test system: BT-549
# [44] = test system: UO-31
# [45] = test system: HL-60
# [46] = test system: SF-539
# [47] = test system: HCT-116
# [48] = test system: SW-620
# [49] = test system: IGROV-1
# [50] = test system: M14
# [51] = test system: SNB-19
# [52] = test system: HOP-92
# [53] = test system: OVCAR-4
# [54] = test system: RXF 393
# [55] = test system: K562
# [56] = test system: COLO 205
# [57] = test system: 786-0
# [58] = test system: SR
# [59] = test system: Malme-3M
compound,measurement,setting,value
CCCCCCNC(=O)C1=C(C)NC(C)=C(C(=O)NCCCCCC)C1,GI50,[1],> 100 µM (inactive)
same,GI50,[2],> 100 µM (inactive)
same,GI50,[3],> 100 µM (inactive)
same,GI50,[4],> 100 µM (inactive)
same,GI50,[5],> 100 µM (inactive)
same,GI50,[6],> 100 µM (inactive)
same,GI50,[7],> 100 µM (inactive)
same,GI50,[8],70.3 µM (inactive)
same,GI50,[9],> 100 µM (inactive)
same,GI50,[10],> 100 µM (inactive)
same,GI50,[11],89.3 µM (inactive)
same,GI50,[12],> 100 µM (inactive)
same,GI50,[13],> 100 µM (inactive)
same,GI50,[14],51.9 µM (inactive)
same,GI50,[15],64.7 µM (inactive)
same,GI50,[16],> 100 µM (inactive)
same,GI50,[17],> 100 µM (inactive)
same,GI50,[18],> 100 µM (inactive)
same,GI50,[19],> 100 µM (inactive)
same,GI50,[20],> 100 µM (inactive)
same,GI50,[21],> 100 µM (inactive)
same,GI50,[22],> 100 µM (inactive)
same,GI50,[23],> 100 µM (inactive)
same,GI50,[24],> 100 µM (inactive)
same,GI50,[25],> 100 µM (inactive)
same,GI50,[26],> 100 µM (inactive)
same,GI50,[27],> 100 µM (inactive)
same,GI50,[28],75.5 µM (inactive)
same,GI50,[29],> 100 µM (inactive)
same,GI50,[30],> 100 µM (inactive)
same,GI50,[31],> 100 µM (inactive)
same,GI50,[32],> 100 µM (inactive)
same,GI50,[33],> 100 µM (inactive)
same,GI50,[34],> 100 µM (inactive)
same,GI50,[35],> 100 µM (inactive)
same,GI50,[36],> 100 µM (inactive)
same,GI50,[37],> 100 µM (inactive)
same,GI50,[38],> 100 µM (inactive)
same,GI50,[39],> 100 µM (inactive)
same,GI50,[40],> 100 µM
same,GI50,[41],> 100 µM (inactive)
same,GI50,[42],> 100 µM (inactive)
same,GI50,[43],> 100 µM (inactive)
same,GI50,[44],63.8 µM (inactive)
same,GI50,[45],31 µM (inactive)
same,GI50,[46],> 100 µM (inactive)
same,GI50,[47],> 100 µM (inactive)
same,GI50,[48],> 100 µM (inactive)
same,GI50,[49],> 100 µM (inactive)
same,GI50,[50],> 100 µM (inactive)
same,GI50,[51],> 100 µM (inactive)
same,GI50,[52],73.3 µM (inactive)
same,GI50,[53],> 100 µM (inactive)
same,GI50,[54],> 100 µM (inactive)
same,GI50,[55],65.8 µM (inactive)
same,GI50,[56],> 100 µM (inactive)
same,GI50,[57],> 100 µM (inactive)
same,GI50,[58],83 µM (inactive)
CCOC(=O)/C(=C\c1ccc(F)cc1)C(C)=O,GI50,[1],17.5 µM (inactive)
same,GI50,[2],29.1 µM (inactive)
same,GI50,[3],18.9 µM (inactive)
same,GI50,[4],19.2 µM (inactive)
same,GI50,[5],24.3 µM (inactive)
same,GI50,[6],14.3 µM (inactive)
same,GI50,[7],17.8 µM (inactive)
same,GI50,[8],26.3 µM (inactive)
same,GI50,[9],38.9 µM (inactive)
same,GI50,[10],21.8 µM (inactive)
same,GI50,[11],24.4 µM (inactive)
same,GI50,[13],36.1 µM (inactive)
same,GI50,[14],25.1 µM (inactive)
same,GI50,[15],30.1 µM (inactive)
same,GI50,[16],17.1 µM (inactive)
same,GI50,[17],22.3 µM (inactive)
same,GI50,[18],21.6 µM (inactive)
same,GI50,[19],24.3 µM (inactive)
same,GI50,[20],13.5 µM (inactive)
same,GI50,[21],21.2 µM (inactive)
same,GI50,[22],32.8 µM (inactive)
same,GI50,[23],29.5 µM (inactive)
same,GI50,[24],35.6 µM (inactive)
same,GI50,[25],58.6 µM (inactive)
same,GI50,[26],21.8 µM (inactive)
same,GI50,[27],29.4 µM (inactive)
same,GI50,[28],37.8 µM (inactive)
same,GI50,[29],23.2 µM (inactive)
same,GI50,[30],35.5 µM (inactive)
same,GI50,[31],35 µM (inactive)
same,GI50,[32],45.3 µM (inactive)
same,GI50,[33],63 µM (inactive)
same,GI50,[34],24.4 µM (inactive)
same,GI50,[35],32.5 µM (inactive)
same,GI50,[36],26.5 µM (inactive)
same,GI50,[37],22.6 µM (inactive)
same,GI50,[38],21.2 µM (inactive)
same,GI50,[39],21.6 µM (inactive)
same,GI50,[40],20.7 µM
same,GI50,[41],29.2 µM (inactive)
same,GI50,[42],19.1 µM (inactive)
same,GI50,[43],21.5 µM (inactive)
same,GI50,[44],16.2 µM (inactive)
same,GI50,[45],19.5 µM (inactive)
same,GI50,[46],34 µM (inactive)
same,GI50,[47],29.2 µM (inactive)
same,GI50,[48],16.5 µM (inactive)
same,GI50,[49],18.2 µM (inactive)
same,GI50,[59],19.2 µM (inactive)
same,GI50,[50],22.9 µM (inactive)
same,GI50,[51],33.8 µM (inactive)
same,GI50,[52],15.1 µM (inactive)
same,GI50,[53],28 µM (inactive)
same,GI50,[54],17 µM (inactive)
same,GI50,[55],30.3 µM (inactive)
same,GI50,[56],36 µM (inactive)
same,GI50,[57],22.3 µM (inactive)
same,GI50,[58],19 µM (inactive)
